Data taken from US12304909B2, “Compounds and their use in therapy” (IMPERIAL COLLEGE INNOVATIONS LIMITED, priority 2018, dated 2025).
Values joined by “and” are separate entries in the source; they are usually repeats but may differ in a detail not shown here. Equal values may be shown once. Read-outs that look alike come from different tables or passages of the source.

Legend:
MRC5 cells = assay: Metabolic activity assay (MTS assay), MRC5; assay type: cell-based, human
Method: (§1) Example NMT inhibitors of the present invention were tested for activity in an in vitro metabolic activity assay using the human cell line MRC5. Comparative Examples 1, 2, 3, 4, 5 and 6 were also tested in the same metabolic activity assay. Compounds having activity in inhibiting metabolic activity in the assay are expected to be useful as agents for preventing and/or treating cancer, by virtue of being inhibitors of human NMT1 and/or NMT2.
MRC5 cells (obtained from Dr David Mann's group, Imperial College; cell type: fibroblasts cells which derive from normal lung tissue) were grown in DMEM media (supplemented with 10% FBS) and were seeded in a 96-well plate, 24 h prior to treatment. Cell suspensions were prepared by adjusting the cell density to the appropriate concentration (as stated in the Table 1 below) and 50 μL of the cell suspension was transferred to wells B-G in columns 2-11 of a 96-well plate.
100 μL of growth media (DMEM media) containing 0.2% DMSO was added to wells B-G in columns 2 and 11 as positive controls, and 100 μl of growth media containing Puromycin (3 μg/mL; final concentration in the plate 2 μg/mL) was added to wells B-G in column 3 as a negative control. Seven concentrations of NMT inhibitor stock solution were prepared for each Example (Example 1 and 2) and each Comparative Example (Comparative Examples 1, 2, 3, 4, 5 and 6) tested (same final percentage of DMSO, dilution factor=3 starting from 15 μM or 150 μM). 100 μL of inhibitor stock solution was added to wells B-G in columns 4-10 of a 96-well plate (final concentration of Example compound or Comparative Example compound in the plate starting from 10 μM or 100 μM; total volume in each well was 150 μL). The plate was incubated at 37° C. with 5% CO2 level.
After 72 h, 20 μL MTS reagent (Promega, prepared according to the supplier protocol) was added to each well of the 96-well plate. The plate was incubated at 37° C. for 2 h and the absorbance per well was measured at 490 nm with an EnVision plate reader. The average absorbance value of the negative control (Puromycin-treated cells) was subtracted from each value and the metabolic activity was calculated as a percentage relative to the positive control (DMSO-treated cells). EC50 values were calculated using GraphPad.

BL-41 cells = assay: CellTiter-Blue assay, BL-41; assay type: cell-based, human
Method: as §1, with “in” for “in an”, “CellTiter-Blue® assays” for “metabolic activity assay”, “MDA MB 231, LY 12318, or BL-41.” for “MRC5.”, “1” for “1, 2, 3, 4, 5”, “2” for “6”, “assays.” for “metabolic activity assay.”
(§2) MDA MB 231 cells (obtained from Professor Eric Aboagye, Hammersmith Hospital; cell type: triple negative breast cancer) were grown in low glucose DMEM in 5% CO2 media (supplemented with 10% FBS); LY 12318 cells (obtained from Dr Martin Janz, Max Delbrueck Center; cell type: B cell lymphoma patient derived xenograft) were grown in DMEM media (supplemented with 10% FBS); and BL-41 cells (obtained from Cell Services at the Crick Institute; cell type: Burkitt's Lymphoma) were grown in RPMI-1640 media in 5% CO2 (supplemented with 10% FBS). The MDA MB 231 cells, LY 12318 cells or BL-41 cells were seeded in 96-well plates, 24 h prior to treatment. Cell suspensions were prepared by adjusting the cell density to the appropriate concentration (as stated in the Table 2 below) and 50 μL of the cell suspension was transferred to wells B-G in columns 2-11 of a 96-well plate.
(§3) Twenty-four hours later, 50 μl of growth media (low glucose DMEM in 5% CO2 media supplemented with 10% FBS for MDA MB 231 cells; DMEM media in 5% CO2 supplemented with 10% FBS for LY 12318 cells; or RPMI-1640 media supplemented with 10% FBS for BL-41 cells) containing 0.0004% DMSO (positive control), a mix of Puromycin and Staurosporine (negative controls, final concentration 2 μg/mL and 1 μM respectively) or different concentrations of each Example (Example 1 and 2) or each Comparative Example (Comparative Example 1 and 2) (dilution factor=3, starting at […], final concentration in the plate starting from 10 μM) were prepared and added to a well of the 96-well plate. The plate was incubated at 37° C. with 5% CO2 level.
(§4) 72 hours later, 20 μl/well CellTiter-Blue® (G8081, Promega) were added to the plates according to the manufacturer's protocol, the plate was incubated at 37° C. for 4 h for MDA MB 231 cells and BL-41 cells, or 3 h for LY 12318 cells, followed by measuring the absorbance per well at 570 nm using an EnVision plate reader. The negative control values were subtracted from every value. The metabolic activity was calculated as a percentage relative to the positive control. The EC50 values were calculated using GraphPad Prism.

MDA MB 231 cells = assay: CellTiter-Blue assay, MDA MB 231; assay type: cell-based, human
Method: as §1, with “in” for “in an”, “CellTiter-Blue® assays” for “metabolic activity assay”, “MDA MB 231, LY 12318, or BL-41.” for “MRC5.”, “1” for “1, 2, 3, 4, 5”, “2” for “6”, “assays.” for “metabolic activity assay.”
as §2, §3, §4

LY 12318 cells = assay: CellTiter-Blue assay, LY 12318; assay type: cell-based, human; conditions: 72 h, read-out: LY12318 EC50
Method: as §1, with “in” for “in an”, “CellTiter-Blue® assays” for “metabolic activity assay”, “MDA MB 231, LY 12318, or BL-41.” for “MRC5.”, “1” for “1, 2, 3, 4, 5”, “2” for “6”, “assays.” for “metabolic activity assay.”
as §2, §3, §4

human NMT1 (HsNMT1) = biological target: T1, human NMT1 (HsNMT1) (Homo sapiens, UniProt P30419); assay: HsNMT1 IC50, fluorescence-based assay detecting CoA with CPM; assay type: biochemical
T1 sequence (P30419 1-496): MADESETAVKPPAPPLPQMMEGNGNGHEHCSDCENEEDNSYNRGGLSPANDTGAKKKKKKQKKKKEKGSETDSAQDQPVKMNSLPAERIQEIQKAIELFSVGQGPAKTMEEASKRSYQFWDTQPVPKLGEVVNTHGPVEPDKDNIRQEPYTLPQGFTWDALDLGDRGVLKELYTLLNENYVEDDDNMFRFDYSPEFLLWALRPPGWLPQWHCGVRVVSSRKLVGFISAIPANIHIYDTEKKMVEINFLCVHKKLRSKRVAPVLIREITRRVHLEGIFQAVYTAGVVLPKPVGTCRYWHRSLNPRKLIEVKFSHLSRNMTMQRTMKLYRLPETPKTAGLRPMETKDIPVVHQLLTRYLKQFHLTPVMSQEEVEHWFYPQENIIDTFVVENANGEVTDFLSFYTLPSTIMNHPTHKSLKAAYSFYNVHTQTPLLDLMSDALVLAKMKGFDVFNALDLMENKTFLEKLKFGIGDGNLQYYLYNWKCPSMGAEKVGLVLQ
Method: The IC50 values for human NMT1 (HsNMT1) of four Example compounds of the invention described above (Examples 1-4) and six comparative examples (Comparative Examples 1, 2, 3, 4, 5 and 6) were measured using a sensitive fluorescence-based assay based on detection of CoA by 7-diethylamino-3-(4-maleimido-phenyl)-4-methylcoumarin, as described in Goncalves, V., et al., Analytical Biochemistry, 2012, 421, 342-344 and Goncalves, V., et al., J. Med. Chem, 2012, 55, 3578.

[1] = Human liver microsomes half life; assay type: in vitro ADME; conditions: pH 7.4, read-out: Human liver microsomes t ½
Method: (§5) Example Compound 1 was tested for metabolic stability in an assay using human liver microsomes. Comparative Examples 2, 3, 4, 5 and 6 were also tested in the same assay. Compounds having good metabolic stability in the assay are expected to be especially useful as agents for preventing and/or treating cancer, by having a long half-life in human patients
Frozen human liver microsomes obtained from Corning, USA (cat #452117) were thawed and diluted with 100 mM of pH 7.4 phosphate buffer to give a 1 mg/ml solution. An NADPH regeneration system (NRS) was prepared as a solution containing 13 mM NADP, 33 mM glucose-6-phosphate, 33 mM MgCl2 and 4U/mL glucose-6-phosphate dehydrogenase in 100 mM of pH7.4 phosphate buffer. The test compound (4 mM) in DMSO was diluted with acetonitrile to provide a 100 μM sub-stock then further diluted with 100 mM of pH7.4 phosphate buffer to provide a 2 μM working solution. The liver microsome solution and NRS were incubated at 37° C. before use. To each well of the test plate was dispensed 60 μL of buffer, 50 μL of test compound solution and 10 μL of NRS. A reaction was initiated by addition of 40 μL of liver microsome solution. Wells were incubated for an appropriate time (0, 5, 10, 20, 30 and 60 min) then quenched with 300 μL of acetonitrile containing reference standards atenolol, propranolol, diclofenac, verapamil). All plates were centrifuged at 3500 rpm for 20 min at 15° C. to pellet the debris. 110 μL supernatant was diluted 110 μL water and quantitated using LC-MS/MS.
The results were used to calculate the % Remaining of the test compound at time point t=100×˜[(AUC at time point t)/(AUC at T=0)]. A linear regression curve was fitted to a plot of natural logarithm (In) of AUC against time. The T-half (min)=0.693/slope.

Rat hepatocyte half life = assay type: in vitro ADME, Sprague-Dawley rats; conditions: pooled cryopreserved rat hepatocytes, pH 7.4; pooled male Sprague-Dawley rat hepatocytes; read-out: Rat Hepatocyte t ½
Method: as §5, with “rat metabolic assays” for “an assay”, “hepatocytes derived from pooled male Sprague-Dawley rats.” for “human liver microsomes.”, “3” for “3, 4, 5”, “4” for “6”, “patients.” for “patients”
Frozen pooled rat hepatocytes obtained from LifeTechnologies were thawed and purified according to the manufacturer's instructions. The test compound (4 mM) in DMSO was diluted with acetonitrile to provide a 100 μM sub-stock then further diluted with pH7.4 Krebs-Henseleit buffer supplemented with CaCl2), NaHCO3, HEPES, fructose and glycine) to provide a 2 μM working solution. 25 μL of working solution was incubated at 37° C., treated with 25 μL of rat hepatocyte suspension (containing 1×10^6 cells/mL) and incubated at 37° C. with 5% CO2 level at 95% relative humidity. Wells were incubated for an appropriate time (0, 15, 30, 45, 60 and 75 min) then quenched with 250 μL of acetonitrile containing reference standards diltiazem, 7-ethoxycoumarin and propranolol). The plates were shaken, sonicated for 5 min then cooled to 4° C. until all sampling was complete. All plates were centrifuged at 4000 rpm for 20 min to pellet the debris. 110 μl supernatant was diluted 110 μL water and quantitated using LC-MS/MS.
The results were used to calculate the % Remaining of the test compound at time point t=100×˜[(AUC at time point t)/(AUC at T=0)]. A linear regression curve was fitted to a plot of natural logarithm (In) of AUC against time. The T-half (min)=0.693/slope

Structure (SMILES) | EC50 (MRC5 cells; Homo sapiens, MRC5, 72 h) [nM] | EC50 (MDA MB 231 cells; Homo sapiens, MDA-MB-231, 72 h) [nM] | EC50 (LY 12318 cells; Homo sapiens) [nM] | IC50 (human NMT1 (HsNMT1)) | half-life at 0.625 µM [1] [min] | other results
CNC(=O)c1nn(C)c(C)c1CCOc1cc(Cl)ccc1-c1ccc2ncc(CCN)n2c1 [Example Compound 2, 4-(2-{2-[3-(2-aminoethyl)imidazo[1,2-a]pyridin-6-yl]-5-chlorophenoxy}ethyl)-N,1,5-trimethyl-1H-pyrazole-3-carboxamide] | < 40 | < 70 | < 70 |  |  | EC50 (MRC5 cells; 72 h): 37 nM; EC50 (BL-41 cells; 72 h): 24 nM; EC50 (MDA MB 231 cells; 72 h): 45 nM; EC50 (LY 12318 cells): 69 nM
Cc1c(CCOc2cc(F)ccc2-c2ccc3ncc(CN(C)C)n3c2)c(C(=O)N(C)C)nn1C [Comparative Example 4, 4-[2-(2-{3-[(dimethylamino)methyl]imidazo[1,2-a]pyridin-6-yl}-5-fluorophenoxy)ethyl]-N,N,1,5-tetramethyl-1H-pyrazole-3-carboxamide] | 63 |  |  | ~1 nM and 1 nM | 12 | half-life at 1 µM (Rat hepatocyte half life): 32 min
Cc1c(CCOc2cc(F)ccc2-c2ccc3ncc(CCN)n3c2)c(C(=O)N(C)C)nn1C [Comparative Example 1, 4-(2-{2-[3-(2-aminoethyl)imidazo[1,2-a]pyridin-6-yl]-5-fluorophenoxy}ethyl)-N,N,1,5-tetramethyl-1H-pyrazole-3-carboxamide] | 450 | 285 | 246 | 2 nM |  | EC50 (BL-41 cells; Homo sapiens, BL-41, 72 h): 91 nM
Cc1c(CCOc2c(-c3ccc4ncc(CCN)n4c3)ccc(Cl)c2F)c(C(=O)N(C)C)nn1C [Example Compound 3, 4-(2-{6-[3-(2-aminoethyl)imidazo[1,2-a]pyridin-6-yl]-3-chloro-2-fluorophenoxy}ethyl)-N,N,1,5-tetramethyl-1H-pyrazole-3-carboxamide] |  |  |  | 4.2 nM |  | 
Cc1nn(C)c(C)c1CCOc1c(F)cccc1-c1ccc2c(c1)c(CN(C)C)nn2C [Comparative Example 6, 1-(5-(3-fluoro-2-(2-(1,3,5-trimethyl-1H-pyrazol-4-yl)ethoxy)phenyl)-1-methyl-1H-indazol-3-yl)-N,N-dimethylmethanamine] | 38 |  |  |  | 4 | 
CNC(=O)c1nn(C)c(C)c1CCOc1c(-c2ccc3ncc(CCN)n3c2)ccc(Cl)c1F [Example Compound 4, 4-(2-{6-[3-(2-aminoethyl)imidazo[1,2-a]pyridin-6-yl]-3-chloro-2-fluorophenoxy}ethyl)-N,1,5-trimethyl-1H-pyrazole-3-carboxamide] |  |  |  | 6.3 nM |  | 
